From patent JP2011135835A, “ダンマラン系トリテルペン類含有組成物及び呈味改善方法” (Lion Corp, priority 2009, dated 2011)

Assay: physchem
Type: physicochemical
Conditions: for residual rate: after standing 3 weeks at 40°C, 75% relative humidity, HPLC

Structure (SMILES) | remaining at 504 h [%] | residual rate
CC1(C)CCC[C@](C)([C@H]2CC[C@]3(C)[C@@H]2[C@H](O)C[C@@H]2[C@@]4(C)CC[C@H](O)C(C)(C)[C@@H]4CC[C@]23C)O1 [PD, パナキサジオール] | 99.7 | –
CC(C)=CCC[C@](C)(O)[C@H]1CC[C@]2(C)[C@@H]1[C@H](O)C[C@@H]1[C@@]3(C)CC[C@H](O)C(C)(C)[C@@H]3CC[C@]12C [PPD, プロトパナキサジオール] | – | 検出されなかった
CC(C)=CCC[C@](C)(O)[C@H]1CC[C@]2(C)[C@@H]1[C@H](O)C[C@@H]1[C@@]3(C)CC[C@H](O)C(C)(C)[C@@H]3[C@@H](O)C[C@]12C [PPT, プロトパナキサトリオール] | – | 検出されなかった
CC1(C)CCC[C@](C)([C@H]2CC[C@]3(C)[C@@H]2[C@H](O)C[C@@H]2[C@@]4(C)CC[C@H](O)C(C)(C)[C@@H]4[C@@H](O)C[C@]23C)O1 [PT, パナキサトリオール] | 99.8 | –
